Measurements as given in patent US9969758B2, “Antimicrobial compounds” (BIOMERIEUX, priority 2014, dated 2018).

Tests used:
[1] = system: Providencia rettgeri NCTC 7475; assay: MIC by agar dilution, single strains; type: cell-based; conditions: NCTC7475, 22 hours of incubation, read-out: Minimum inhibitory concentration (MIC)
Protocol: (§1) Determining the minimum inhibitory concentrations (MIC). All the MICs were determined using an agar dilution method. This required use of a medium without a defined antagonist (peptone-free), prepared as described previously with the inclusion of 2% horse blood lysed with saponin, 25.0 μg/mL of NAD and 25.0 μg/mL of hemin [17]. The compounds tested were dissolved in sterile deionised water and incorporated into the agar medium in a concentration range of 0.0031 to 8.0 μg/mL (0.016 to 32 μg/mL for gram-positive bacteria). All the isolates were prepared at a density equivalent to 0.5 McFarland units in sterile deionised water using a densitometer (approximately 1.5×10^8 CFU/mL), and then diluted to 1 for 15. An aliquot of 1 μL of each diluted suspension was then placed onto plates with a multispot inoculator to give the final recommended inoculation of 10 000 CFU/spot. The MICs of fosfomycin were determined by the same method, except that the IsoSensitest medium (Oxoid, Basingstoke, United Kingdom) was used, plus 25.0 μg/mL of glucose-6-phosphate (Sigma, Poole, United Kingdom) and an extended range of fosfomycin concentrations. All the dishes (including the antimicrobial-free controls) were incubated for 22 hours at 37° C. All the tests were performed on at least two independent replicates in order to examine the reproducibility.

[2] = system: Escherichia coli NCTC 10418; assay: MIC by agar dilution, single strains; type: cell-based; conditions: NCTC10418, 22 hours of incubation, read-out: Minimum inhibitory concentration (MIC)
Protocol: as §1

[3] = system: Staphylococci epidermidis NCTC 11047; assay: MIC by agar dilution, single strains; type: cell-based; conditions: 22 hours of incubation, read-out: Minimum inhibitory concentration (MIC)
Protocol: as §1

[4] = system: Salmonella enteritidis NCTC 6676; assay: MIC by agar dilution, single strains; type: cell-based; conditions: Salmonella enterica, 22 hours of incubation, read-out: Minimum inhibitory concentration (MIC)
Protocol: as §1

[5] = system: Serratia marcescens NCTC 10211; assay: MIC by agar dilution, single strains; type: cell-based; conditions: NCTC10211, 22 hours of incubation, read-out: Minimum inhibitory concentration (MIC)
Protocol: as §1

[6] = system: Pseudomonas aeruginosa NCTC 10662; assay: MIC by agar dilution, single strains; type: cell-based; conditions: NCTC10662, 22 hours of incubation, read-out: Minimum inhibitory concentration (MIC)
Protocol: as §1

[7] = system: Klebsiella pneumoniae NCTC 9528; assay: MIC by agar dilution, single strains; type: cell-based; conditions: NCTC9528, 22 hours of incubation, read-out: Minimum inhibitory concentration (MIC)
Protocol: as §1

[8] = system: Enterobacter cloacae NCTC 11936; assay: MIC by agar dilution, single strains; type: cell-based; conditions: NCTC11936, 22 hours of incubation, read-out: Minimum inhibitory concentration (MIC)
Protocol: as §1

[9] = system: Salmonella typhimurium NCTC 74; assay: MIC by agar dilution, single strains; type: cell-based; conditions: Salmonella enterica, 22 hours of incubation, read-out: Minimum inhibitory concentration (MIC)
Protocol: as §1

[10] = system: Enterococcus faecalis NCTC 775; assay: MIC by agar dilution, single strains; type: cell-based; conditions: NCTC775, 22 hours of incubation, read-out: Minimum inhibitory concentration (MIC)
Protocol: as §1

[11] = system: Staphylococcus aureus NCTC 6571; assay: MIC by agar dilution, single strains; type: cell-based; conditions: NCTC6571, 22 hours of incubation, read-out: Minimum inhibitory concentration (MIC)
Protocol: as §1

[12] = system: Yersinia enterocolitica NCTC 11176; assay: MIC by agar dilution, single strains; type: cell-based; conditions: NCTC11176, 22 hours of incubation, read-out: Minimum inhibitory concentration (MIC)
Protocol: as §1

[13] = system: Enterococcus faecium NCTC 7171; assay: MIC by agar dilution, single strains; type: cell-based; conditions: NCTC7171, 22 hours of incubation, read-out: Minimum inhibitory concentration (MIC)
Protocol: as §1

[14] = system: Listeria monocytogenes NCTC 11994; assay: MIC by agar dilution, single strains; type: cell-based; conditions: NCTC11994, 22 hours of incubation, read-out: Minimum inhibitory concentration (MIC)
Protocol: as §1

[15] = system: Acinetobacter baumannii ATCC 19606; assay: MIC by agar dilution, single strains; type: cell-based; conditions: ATCC19606, 22 hours of incubation, read-out: Minimum inhibitory concentration (MIC)
Protocol: as §1

[16] = system: Escherichia coli NCTC 12241; assay: MIC by agar dilution, single strains; type: cell-based; conditions: NCTC12241, 22 hours of incubation, read-out: Minimum inhibitory concentration (MIC)
Protocol: as §1

[17] = system: Staphylococcus aureus NCTC 11939 (SARM); assay: MIC by agar dilution, single strains; type: cell-based; conditions: NCTC11939, 22 hours of incubation, read-out: Minimum inhibitory concentration (MIC)
Protocol: as §1

[18] = system: Burkholderia cepacia ATCC 25416; assay: MIC by agar dilution, single strains; type: cell-based; conditions: ATCC25416, 22 hours of incubation, read-out: Minimum inhibitory concentration (MIC)
Protocol: as §1

All S. aureus (50) = assay: MIC by agar dilution; type: cell-based, Staphylococcus aureus
From the text: (§2) A collection of 50 isolates of Staphylococci aureus included 36 strains of methicillin-resistant S. aureus (MRSA) frequently encountered in Europe, including strains isolated in Belgium, Finland, France, Germany and the United Kingdom. Another strain of MRSA, NCTC 11939, was included as a control, as well as a methicillin-sensitive control (NCTC 6571). Twelve other isolates of methicillin-sensitive Staphylococcus aureus (MSSA) recently collected from blood cultures were also included. Finally, 50 isolates of enterococci included two control strains (Enterococcus faecalis NCTC 755 and Enterococcus faecium NCTC 7171) and 48 isolates originating from clinical samples obtained from at least three different hospitals. The clinical isolates included E. faecalis (n=10), E. faecium (n=33), Enterococcus casseliflavus (n=3), Enterococcus gallinarum (n=2).
as §1

E. cloacae (27) = assay: MIC by agar dilution; type: cell-based, Enterobacter cloacae; conditions: Enterobacter cloacae
From the text: (§3) Bacterial isolates. […] These included Citrobacter freundii (n=5), other species of Citrobacter (n=4), Enterobacter aerogenes (n=1), Enterobacter cloacae (n=27), Escherichia coli (n=53), Klebsiella oxytoca (n=5), Klebsiella pneumoniae (n=87), Kluyvera spp (n=1), Proteus mirabilis (n=8), Providencia rettgeri (n=2), Salmonella spp (n=3), and Serratia marcescens (n=1). Among these 197 isolates, there were 128 (65%) carbapenemase producers, including; 87 with NDM-1, 9 with IMP, 11 with KPC, 14 with OXA-48 and 7 with VIM. The majority of the carbapenemase producers jointly produced broad-spectrum β-lactamases (BSBL) or cephalosporinases (AmpC β-lactamases), but the latter are not documented for the sake of clarity.
as §1

E. coli (53) = assay: MIC by agar dilution; type: cell-based, Escherichia coli; conditions: Escherichia coli
From the text: as §3, §1

[19] = system: Enterobacteriaceae with a broad-spectrum β-lactamase; assay: MIC by agar dilution; type: cell-based
From the text: as §3, §1

[20] = system: carbapenemase-producing Enterobacteriaceae; assay: MIC by agar dilution; type: cell-based
From the text: as §3, §1

Enterobacteriaceae (197) = assay: MIC by agar dilution; type: cell-based
From the text: as §3, §1

E. faecium (34) = assay: MIC by agar dilution; type: cell-based, Enterococcus faecium; conditions: Enterococcus faecium
From the text: as §2, §1

K. pneumoniae (87) = assay: MIC by agar dilution; type: cell-based, Klebsiella pneumoniae; conditions: Klebsiella pneumoniae
From the text: as §3, §1

AmpC (22) = assay: MIC by agar dilution; type: cell-based, Enterobacteriaceae
From the text: as §3, §1

E. faecalis (11) = assay: MIC by agar dilution; type: cell-based, Enterococcus faecalis
From the text: as §2, §1

[21] = system: methicillin-sensitive Staphylococcus aureus; assay: MIC by agar dilution; type: cell-based
From the text: as §2, §1

All Enterococci (50) = assay: MIC by agar dilution; type: cell-based
From the text: as §2, §1

[22] = system: glycopeptide-resistant enterococci; assay: MIC by agar dilution; type: cell-based
From the text: as §2, §1

[23] = system: methicillin-resistant Staphylococcus aureus; assay: MIC by agar dilution; type: cell-based
From the text: as §2, §1

[24] = read-out: Modal MIC (most frequent MIC)

CCC[C@H](N)C(=O)N[C@@H](C)C(=O)NC(C)P(=O)(O)O (stereo partly drawn) [compound I, L-norvalinyl-L-alanyl-D/L-fosfalin]
0.125 µg/mL: MIC [12]
> 8 µg/mL: MIC [1] | MIC [4] | MIC [6] | MIC [8] | MIC [9] | MIC [14] | MIC [15] | MIC [17] | MIC [18]
0.063 µg/mL: MIC [10]
1 µg/mL: MIC [2] | MIC [3] | MIC [11] | MIC [13] | MIC [16]
0.25 µg/mL: MIC [5] | MIC [7]

N[C@@H](CCl)C(=O)N[C@@H](CCl)C(=O)O [β-Cl-Ala-β-Cl-Ala, β-chloro-L-alanyl-β-chloro-L-alanine]
> 32 µg/mL: MIC90 [22]
0.5 to 2 µg/mL: MIC Range ([21]; MSSA (13))
32 µg/mL: MIC90 (E. faecium (34)) | MIC90 (All Enterococci (50))
> 8 µg/mL: MIC50 (E. cloacae (27)) | MIC90 (E. cloacae (27)) | MIC (E. cloacae (27); [24]) | MIC90 (E. coli (53)) | MIC50 [19] | MIC90 [19] | MIC [19, 24] | MIC50 [20] | MIC90 [20] | MIC [20, 24] | MIC50 (Enterobacteriaceae (197)) | MIC90 (Enterobacteriaceae (197)) | MIC (Enterobacteriaceae (197); [24]) | MIC50 (K. pneumoniae (87)) | MIC90 (K. pneumoniae (87)) | MIC (K. pneumoniae (87); [24]) | MIC50 (AmpC (22)) | MIC90 (AmpC (22)) | MIC (AmpC (22); [24])
2 µg/mL: MIC50 (All S. aureus (50); Staphylococcus aureus) | MIC (All S. aureus (50); Staphylococcus aureus, read-out: Modal MIC (most frequent MIC)) | MIC90 ([21]; Staphylococcus aureus, MSSA) | MIC50 ([23]; Staphylococcus aureus, MRSA) | MIC ([23]; Staphylococcus aureus, MRSA, read-out: Modal MIC (most frequent MIC))
1 µg/mL: MIC50 ([21]; Staphylococcus aureus, MSSA) | MIC ([21]; Staphylococcus aureus, MSSA, read-out: Modal MIC (most frequent MIC))
2 to 16 µg/mL: MIC Range (All Enterococci (50); All Enterococci (50))
8 µg/mL: MIC50 (E. coli (53)) | MIC (E. coli (53); [24]) | MIC50 (E. faecalis (11); Enterococcus faecalis) | MIC (E. faecalis (11); Enterococcus faecalis, read-out: Modal MIC (most frequent MIC))
0.125 to 16 µg/mL: MIC Range (All S. aureus (50); All S. aureus (50)) | MIC Range ([23]; MRSA (37))
4 to 16 µg/mL: MIC Range (E. faecalis (11); E. faecalis (11))
16 µg/mL: MIC50 (E. faecium (34)) | MIC (E. faecium (34); [24]) | MIC90 (E. faecalis (11); Enterococcus faecalis) | MIC50 (All Enterococci (50)) | MIC (All Enterococci (50); [24]) | MIC50 [22] | MIC [22, 24]
4 µg/mL: MIC90 (All S. aureus (50); Staphylococcus aureus) | MIC90 ([23]; Staphylococcus aureus, MRSA)

CCC[C@H](N)C(=O)N[C@@H](CCl)C(=O)NC(C)P(=O)(O)O (stereo partly drawn) [compound G, L-Norvalinyl-β-chloro-L-alanyl-D/L-fosfalin]
1 µg/mL: MIC [2] | MIC [13]
0.25 µg/mL: MIC [12]
4 µg/mL: MIC [8] | MIC [11]
0.5 µg/mL: MIC [5] | MIC [7] | MIC [16]
2 µg/mL: MIC [3]
0.063 µg/mL: MIC [10]
> 8 µg/mL: MIC [1] | MIC [4] | MIC [6] | MIC [9] | MIC [14] | MIC [15] | MIC [17] | MIC [18]
